Test results as given in US20050019341A1, “Tumor antigen” (priority 2001, published 2005).

Key:
[1] = tested on: OK-CTL (HLA-A2-restricted cytotoxic T-lymphocyte strain); assay: CTL activation test: T2 cells pulsed with peptide co-cultured with OK-CTL, IFN-γ by ELISA; assay type: cell-based, human; settings: E/T ratio=10, 18 hours, dose-dependent
Protocol: The T2 cells, pulsed with each peptide in this way, were used as the target cells (T). In addition, the OK-CTL obtained in Example 1 were used as effector cells (E). Target cells amounting to 1×10^4 and effector cells amounting to 1×10^5 were mixed (E/T ratio=10) and incubated for 18 hours. After incubation, 100 μl of supernatant was collected, and IFN-γ was measured by ELISA. The quantity of IFN-γ produced by CTL against T2 cells that were not pulsed with a peptide was taken as the background and subtracted from each measurement value.

[2] = tested on: PBMC of HLA-A2+ brain tumor patients; targets T2 cells pulsed with corresponding peptide and/or HLA-A2+ tumor cells; assay: Induction of CTL by peptides from PBMC of brain tumor patients (Example 5): IFN-γ production; assay type: cell-based, human; settings: Patient Case 4 (brain tumor)
Protocol: (§1) The PBMC were prepared by methods of the art from the blood of three primary brain tumor patients and one metastatic brain tumor patient. The PBMC obtained were stimulated by incubation with each peptide in the same way as in Example 4, and were cultured by the same method as in Example 3 using T2 cells that were pulsed with each corresponding peptide or KNS60 tumor cells as target cells, followed by measuring the quantity of IFN-γ produced. When T2 cells that were pulsed with the peptides were used as target cells, the PBMC was paired with the T2 cells in such a way that the peptide used to stimulate PBMC and the peptide pulsed to T2 cells were the same.

[3] = tested on: PBMC of multiple sclerosis patients; T2 cells pulsed with corresponding peptide; assay: Peptide recognition in PBMC of multiple sclerosis patients (Example 6): IFN-γ production against peptide-pulsed T2 cells; assay type: cell-based, human; settings: MS Patient Case 7
Protocol: as §1
(§2) Among the 13 types of peptide obtained in Example 3, three peptides, P101 (SEQ ID NO: 1), P102 (SEQ ID NO: 2), and P103 (SEQ ID NO: 3), which were derived from clone 8B6, as well as three peptides, P104 (SEQ ID NO: 4), P105 (SEQ ID NO: 5), and P106 (SEQ ID NO: 6), which were derived from clone 2G2, were examined for their ability to induce CTL from PBMC obtained from multiple sclerosis patients having HLA-A2 as the HLA type and healthy subjects, in the same manner as in Example 5.

[4] = tested on: HLA-A2+ tumor cells; assay: Peptide-stimulated PBMC of multiple sclerosis patients: recognition of tumor cells (IFN-γ); assay type: cell-based, human; settings: PBMC from multiple sclerosis patients
Protocol: as §1, §2

[5] = tested on: immunoglobulin E (IgE); assay: ELISA for peptide-specific IgE in serum; assay type: binding, human; settings: serum of MS patients
Protocol: The presence of immunoglobulin E (IgE) and immunoglobulin G (IgG) that specifically recognize P102 (SEQ ID NO: 2), P103 (SEQ ID NO: 3), P104 (SEQ ID NO: 4), or P106 (SEQ ID NO: 6) in the serum of a multiple sclerosis patient, a brain tumor patient, and a healthy subject was measured by the enzyme-linked immunosorbent assay (ELISA).
Each aforementioned peptide (20 μg/well) was immobilized in a 96-well Nunc Covalink flat-bottomed plate (Fisher Scientific), using disuccinimidyl suberate (PIERCE), following the product instructions. This plate was blocked with Block Ace (Yukijirushi) and washed with 0.05% Tween20-PBS; a serum or blood plasma sample was diluted with 0.05% Tween20-Block Ace and added to the plate at 100 μl/well. After incubation for 2 hours at 37° C., the plate was washed with 0.05% Tween20-PBS and further incubated for 2 hours at 37° C. with rabbit anti-human IgE antibody (E chain-specific), anti-human IgG antibody (y chain-specific) (DAKO), or anti-human IgG subclass-specific antibody (Zymed Laboratories), each of which were diluted to 1:1000. […] Thereafter, the reaction was stopped by adding 1 M phosphoric acid, and the optical density (OD) at 450 nm was measured. In so doing, peptides derived from EBV, HIV, SART2 (JP-11-318455), or SART3 (Cancer Research, 1999, Volume 59, pp. […]) were used as controls and measured similarly. […]

In the case of “IMSRDLVPRI (Designed peptide recognized by HLA-A2-restricted cytotoxic T lymphocytes) [P102, peptide derived from clone 8B6]”, the “recognition by OK-CTL / production of IFN-γ from OK-CTL” value [1] is reported as “enhanced production of IFN-γ from OK-CTL”, the “production of IFN-γ from PBMC” value [2] is reported as “enhanced production of IFN-γ” and the “production of IFN-γ from PBMC” value [3] is reported as “enhanced production of IFN-γ”. For the same sequence, the “recognition of tumor cells by peptide-stimulated PBMC” value [4] was “did not recognize the tumor cells” and the “IgE that specifically recognizes the peptide” value [5] was “is present”.
